From US9180106B2, “Sigma receptors ligands with anti-apoptotic and/or pro-apoptotic properties, over cellular mechanisms, exhibiting prototypical cytoprotective and also anti-cancer activity” (Anavex Life Sciences Corp., priority 2009, dated 2015)
Blank lines part the entries; values can stand above or below the compound they belong to.

Experiments:
σ-1 receptors [1] = target: T1, σ-1 receptors (Homo sapiens, UniProt Q99720); experiment: affinity for σ-1 receptors; format: binding; conditions: read-out: affinity for σ-1 receptors (pKi) (converted)
T1 sequence (Q99720 whole entry): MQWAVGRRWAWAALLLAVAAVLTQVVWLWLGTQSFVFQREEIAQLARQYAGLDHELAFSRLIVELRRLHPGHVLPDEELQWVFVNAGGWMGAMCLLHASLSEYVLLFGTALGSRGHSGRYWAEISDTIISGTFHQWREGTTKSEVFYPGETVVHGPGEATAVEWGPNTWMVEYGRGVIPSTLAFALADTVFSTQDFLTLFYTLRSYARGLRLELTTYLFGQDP

[2] = test system: scopolamine and dizocilpine (MK-801) induced amnesia or amyloid peptide β25-35 (Aβ25-35); experiment: anti-amnesic action in mice; format: in vivo; conditions: per os (po)
Protocol: The above molecular profile is the basis for AE14 modulatory role over the G-protein coupled receptors (GPCRs) and its pharmacological properties: anti-amnesic action (antagonistic action against scopolamine and dizocilpine (MK-801) induced amnesia or amyloid peptide β25-35 (Aβ25-35), at low doses (from 0.03 mg/kg administered per os (po), in mice). This unique new profile of AE14: anti-apoptotic via agonistic sigma-1 regulation of the volume regulated chloride channels (VRCC), anti-oxidative stress via agonistic action on the sigma-1 receptors of the ER-mitochondrion.

σ-2 receptors = σ-2 receptors (Homo sapiens, UniProt Q5BJF2); experiment: affinity for σ-2 receptors; format: binding
σ-2 receptors, sequence (Q5BJF2 whole entry): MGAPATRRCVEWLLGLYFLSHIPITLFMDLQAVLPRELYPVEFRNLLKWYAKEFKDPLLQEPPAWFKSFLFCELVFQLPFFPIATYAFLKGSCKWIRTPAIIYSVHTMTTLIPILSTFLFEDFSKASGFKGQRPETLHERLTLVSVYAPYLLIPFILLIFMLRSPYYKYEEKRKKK

ER stress = experiment: protocols of acute or chronic ER and cellular stress, in vitro and in vivo; parameters: species or system mice
PTZ-induced tonic crises = experiment: protection against pentylenetetrazole (PTZ) induced stress and tonic crises; conditions: in vitro or in vivo, on mice
σ-1 receptors [3] = target: T1, σ-1 receptors; experiment: agonistic/antagonistic action on σ-1 receptors
[4] = test system: cancer cells: colorectal, prostate, ovarian renal, pancreas, lung, gliomas, glioblastomas leukemia, lymphomas, melanomas, sarcomas and hepatoma
[5] = test system: primary (drug resistant) melanoma; experiment: in vivo anticancer activity in mice xenografts
Description: All molecules present strong chemical affinities (sub-nanomolar to micromolar) for α-1 receptors with antagonistic action (except AdAE and AdPhAE which are weak agonists) and with nanomolar to micromolar affinities for α-2 receptors and agonistic action. Therefore, all molecules above and their derivatives are pro-apoptotic and only at very low concentrations or doses are anti-apoptotic. All molecules above are toxic to the cancer cells: colorectal, prostate, ovarian renal, pancreas, lung, gliomas, glioblastomas leukemia, lymphomas, melanomas, sarcomas and hepatoma, with antiproliferative and cytotoxic concentrations usually lower than 10 microMolar (μM), for more than 50 of the above derivatives. […] The pharmacological profile of the above molecules is totally prototypical and original giving the possibility of a therapeutic synergy with the clinically used anticancer drugs with simultaneous antagonism and protection against the most grave secondary effects i.e., neuropathic pain and disability induced by the clinically used anticancer drugs.

[6] = test system: primary (drug resistant) melanoma; experiment: in vitro cytotoxicity, primary melanoma; format: cell-based
glioblastomas = experiment: in vitro cytotoxicity, glioblastomas; format: cell-based
leukaemia = experiment: in vitro cytotoxicity, leukaemia; format: cell-based
colon = experiment: in vitro cytotoxicity, colon; format: cell-based
breast = experiment: in vitro cytotoxicity, breast; format: cell-based
lung = experiment: in vitro cytotoxicity, lung; format: cell-based

Ki (σ-1 receptors [1]): 25.1 nM
Ki (σ-2 receptors): > 10000 nM
affinity for σ-2 receptors, times lower than for σ-1 (σ-2 receptors; σ-2 versus σ-1): more than 100 times
SMILES: CN(C)CC1COC(c2ccccc2)(c2ccccc2)C1 (centres unmarked) [AE14, Tetrahydro-N,N,-Dimethyl-5,5-Diphenyl-3-Furanomethanamine]
anti-amnesic action, active doses [2]: ≥ 0.03 mg/kg
effect on ER stress (ER stress; acute or chronic cellular stress, oligopeptides or streptozocin, in vitro and in vivo on mice): antagonized the ER stress

SMILES: CNCC1CCOC1(c1ccccc1)c1ccccc1 (centres unmarked) [AE37 Met, Tetrahydro-N-Methyl-2,2-Diphenyl-3-Furanomethanamine]
protection against ER-mitochondrion anoxia and oxidative stress caused by PTZ (PTZ-induced tonic crises): exceptional protection
activity relative to AE37 (ER stress; for the properties mentioned for AE37): slightly more active than AE37

Ki (σ-1 receptors [1]): 501 nM
action on σ-1 receptors (σ-1 receptors [3]): selective σ-1 agonist
affinity for σ-2 receptors (σ-2 receptors): no affinity
SMILES: CN(C)CC1CCOC1(c1ccccc1)c1ccccc1 (centres unmarked) [AE37, Tetrahydro-N,N-Dtiviethyl-2,2-Dinienyl-3-Furanomethanamine]
anti-apoptotic properties (ER stress; chronic ER and cellular stress, in vitro and in vivo on mice): high anti-apoptotic properties

SMILES: COc1ccc(CCN2CCC(Nc3nc4ccccc4n3Cc3ccc(F)cc3)CC2)cc1 [AST, Astemizole]
cytotoxicity, in vitro [4]: 3.0 to 5.0 µM

action on σ-1 receptors (σ-1 receptors [3]): weak agonists
SMILES: CN(C)CC1COC2(C1)C1CC3CC(C1)CC2C3 (centres unmarked) [AdAE, (DIHYDRO-4-(DIMETHYLAMINOMETHYL)SPIRO {FURANE-2(3H),2′-TRICYCLO[3.3.1.13,7]DECANE}]

action on σ-1 receptors (σ-1 receptors [3]): weak agonists
SMILES: CN(C)CC1COC(c2ccccc2)(C23CC4CC(CC(C4)C2)C3)C1 (centres unmarked) [AdPhAE, 5-(TRICYCLO[3.3.1.13,7]DEC-1-YL)-TETRAHYDRO-N,N-DIMETHYL-5-PHENYL-3-FURANEMETHANAMINE]

SMILES: CN(C)/N=N/c1[nH]cnc1C(N)=O [Dacarbazine]
in vivo anticancer activity [5]: inactive

SMILES: CN(C)c1ccc2nc3ccc(=[N+](C)C)cc-3sc2c1 [MB, Methylene blue]
cytotoxicity, in vitro [6]: lower than 1.0 μM
cytotoxicity, in vitro (glioblastomas): ~2.0 µM
in vivo anticancer activity [5]: confirmed in vivo
cytotoxicity, in vitro (leukaemia): lower than 1.0 μM
cytotoxicity, in vitro (colon): ~2.0 µM
cytotoxicity, in vitro (breast): ~2.0 µM
cytotoxicity, in vitro (lung): lower than 1.0 μM

SMILES: CCN(CC)CCCC(C)Nc1c2ccc(Cl)cc2nc2ccc(OC)cc12 (centres unmarked) [QNC, Quinacrine]
in vivo anticancer activity [5]: outstanding in vivo activity
